Measured values as given in publication PMC12567066, “Sustainable Synthesis of 1,2-Disubstituted Benzimidazoles as Promising α-Glucosidase Inhibitors: In Vitro and In Silico Evaluation” (Pharmaceuticals, 2025).
“Also recorded” adds a separate entry of the source. Where two headings read alike, the source gives them in different places.

How the values were obtained:
[1] = biological target: T1, α-amylase from porcine pancreas (Sus scrofa, UniProt P00690); experiment: α-amylase inhibition assay (CNPG3 substrate); assay type: biochemical; details: 10 min, pH 7, mean ± SD, three independent assays, read-out: α-Amylase % inib. at 50 μM
T1 construct: 40 μL of α-amylase from porcine pancreas (1 mg/mL) was used; from tissue; host or cells: porcine pancreas
T1 sequence (P00690 16-511): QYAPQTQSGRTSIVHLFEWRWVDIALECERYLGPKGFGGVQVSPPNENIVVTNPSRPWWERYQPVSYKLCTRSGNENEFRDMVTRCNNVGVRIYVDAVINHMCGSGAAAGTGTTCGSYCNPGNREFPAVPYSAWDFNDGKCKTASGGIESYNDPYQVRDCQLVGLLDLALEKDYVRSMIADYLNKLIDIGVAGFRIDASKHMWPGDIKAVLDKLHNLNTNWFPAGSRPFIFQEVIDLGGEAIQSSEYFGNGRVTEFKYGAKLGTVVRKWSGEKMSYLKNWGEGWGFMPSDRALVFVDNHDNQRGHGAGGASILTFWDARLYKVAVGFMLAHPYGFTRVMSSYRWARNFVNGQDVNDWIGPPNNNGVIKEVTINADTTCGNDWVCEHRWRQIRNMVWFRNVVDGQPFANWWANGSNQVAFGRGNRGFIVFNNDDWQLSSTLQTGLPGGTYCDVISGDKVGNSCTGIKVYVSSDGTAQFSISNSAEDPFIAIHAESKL
Procedure: The α-amylase assay was conducted as described in previous studies. A reaction mix containing 60 μL of […] sodium phosphate buffer at pH 7.0, 20 μL of 1 M NaCl and 40 μL of α-amylase from porcine pancreas (1 mg/mL) was used. The solution was incubated in the absence or presence of compounds at 37 °C for 10 min. After incubation, 80 μL of a 2.5 μM 2-chloro-4-nitrophenyl α-D-maltotrioside (CNPG3) solution was added as the substrate and 2-chloro-nitrophenol released by the enzymatic hydrolysis was monitored at 405 nm, using a microplate reader (Fluostar BMG LABTECH GmbH, Offenburg, Germany). The results of all the assays described above were expressed as a percentage of the blank control.
(§1) The percentage of inhibition of enzyme activity, for both enzymes, was calculated as (%) by the following equation: A−B/A × 100, where A represents the difference in the absorbance of the control sample between an incubation time of 0 and 1.0 min, and B represents the test sample’s absorbance difference in the same time range.

α-glucosidase = α-glucosidase (Saccharomyces cerevisiae, UniProt P53341); experiment: biochemical; details: for α-Glucosidase % inib. at 50 μM: 15 min; for inhibition at 50 µM: 0.25 h
Procedure: The α-glucosidase assay was performed as previously described. The enzyme from Saccharomyces cerevisiae (0.125 U/mL) solution was dissolved in 0.1 M sodium phosphate buffer (pH 6.8). Twenty microliters of test samples at various concentrations (0.005–50 μM) were mixed with the enzyme solution in microplate wells and incubated for 15 min at 37 °C. Subsequently, 20 μL of […] p-nitrophenyl α-D-glucopyranoside (pNPG) solution in 0.1 M phosphate buffer was added. After incubation at 37 °C for 15 min, the reaction was terminated by adding 50 μL of 0.2 M sodium carbonate solution. α-Glucosidase activity was determined spectrophotometrically at 405 nm on a 96-well microplate reader Fluostar (BMG LABTECH GmbH, Offenburg, Germany) by measuring the amount of p-nitrophenol released. DMSO control was used whenever required and the final concentration of DMSO was maintained below 8% v/v, which was found not to affect the enzyme activity. The IC50 values were determined by the interpolation of dose–response curves (Figure S2, Supplementary Material).
as §1

[2] = DPPH radical scavenging assay; details: mean ± SD, three independent experiments
Procedure: Radical scavenging activity of the better derivatives was estimated according to the previously reported method with slight modification using the stable DPPH radical.
A solution of 0.1 mM DPPH• radical was added to various concentrations of compounds. The reaction mixture was incubated in the dark for 15 min and, thereafter, the absorbance was recorded at 517 nm (VANTAstar_BMG LABTECH GmbH, Germany). The decrease in absorbance of DPPH•, after addition of test compounds compared to the control, was used to calculate the antioxidant activity.
(§2) For each assay, the decrease in absorbance was used to calculate the antioxidant activity, which was expressed as the ability of the antioxidants to scavenge 50% of radical (EC50).

Caco-2 cells = experiment: Cell viability MTT assay; assay type: cell-based, human; details: 1–30 μM, 24 h
Procedure: Cells were treated with different concentrations of the compounds (1–30 μM) for 24 h and examined using the MTT assay.
The cellular cytotoxicity of compounds was investigated using a 3-(4,5-dimethylthiazol-2-yl)-2,5-diphenyl-tetrazolium bromide (MTT) assay as previously reported, with minor modifications. The CaCo-2 were exposed for 24 h to compounds at concentrations ranging from […]. Then, MTT reagent (0.5 mg/mL in DMEM) was added to each well. The plate was incubated for 3 h at 37 °C. The MTT solution was removed from the culture plate, and 100 μL of DMSO solvent was added to solubilize the water-insoluble formazan crystals formed in the cells. The absorbance was determined at 570 nm using a microplate reader (VANTAstar_BMG LABTECH GmbH, Ortenberg, Germany).

[3] = ABTS radical scavenging assay; details: mean ± SD, three independent experiments
Procedure: This method is based on the capacity of an antioxidant to scavenge the free radical ABTS^+ [50].
Samples of each compound (5 μL) were added to 245 μL of ABTS solution. The reduction in the blue-green radical ABTS^+ by hydrogen-donating antioxidants was evaluated by measuring the absorbance at 734 nm (VANTAstar_BMG LABTECH GmbH, Ortenberg, Germany), after one minute of incubation. All the measurements were carried out at least three times.
as §2

hPreP = tested on: hPreP; set-up: method as in PMID 24602793; details: cited from earlier work
V. cholerae = details: cited from earlier work
B. cereus = tested on: B. cereus; set-up: method as in PMID 22047695; details: cited from earlier work
S. dysenteriae = details: cited from earlier work
[4] = tested on: insulin-degrading enzyme (IDE); set-up: method as in PMID 22355395; details: towards insulin and β-amyloid, cited from earlier work
[5] = 50 μM, mean ± SD, three independent assays
[6] = mean ± SD, three independent assays, read-out: α-Glucosidase IC50
[7] = pH 6.8, 50 μM, mean ± SD, three independent assays, read-out: α-Glucosidase % inib. at 50 μM

Sequence of α-glucosidase (P53341 whole entry): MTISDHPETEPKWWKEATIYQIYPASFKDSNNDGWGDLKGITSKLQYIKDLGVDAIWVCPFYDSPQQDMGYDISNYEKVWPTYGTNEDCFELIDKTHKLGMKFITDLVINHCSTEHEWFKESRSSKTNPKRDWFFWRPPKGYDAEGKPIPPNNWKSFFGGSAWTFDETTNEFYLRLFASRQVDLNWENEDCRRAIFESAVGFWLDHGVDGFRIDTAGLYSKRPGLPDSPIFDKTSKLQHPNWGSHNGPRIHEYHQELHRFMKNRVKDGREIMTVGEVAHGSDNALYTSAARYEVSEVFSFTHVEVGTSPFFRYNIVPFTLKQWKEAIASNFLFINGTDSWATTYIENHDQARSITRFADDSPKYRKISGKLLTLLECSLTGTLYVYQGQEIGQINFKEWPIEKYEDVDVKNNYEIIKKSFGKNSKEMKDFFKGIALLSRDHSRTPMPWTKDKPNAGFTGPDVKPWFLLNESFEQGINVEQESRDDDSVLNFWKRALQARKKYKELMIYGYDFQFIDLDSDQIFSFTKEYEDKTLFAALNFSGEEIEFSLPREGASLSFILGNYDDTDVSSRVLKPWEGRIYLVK

In the case of `Cc1cccc2c1nc(-c1ccc(Cl)c([N+](=O)[O-])c1)n2Cc1ccc(Cl)c([N+](=O)[O-])c1` [C00032], the inhibition at 50 µM [1] is reported as 14 ± 0.15% and the “α-Glucosidase % inib. at 50 μM” value (α-glucosidase; [5]) is reported as 71.2 ± 11.4%.
In the case of `Cc1cccc2c1nc(-c1cc(O)ccc1O)n2Cc1cc(O)ccc1O` [8r, 2-(1-(2,5-Dihydroxybenzyl)-4-methyl-1H-benzo[d]imidazol-2-yl)benzene-1,4-diol], the EC50 [2] is reported as 11.4 ± 1.2 µM, the “Cytotoxicity / effect on Caco-2 cell viability” value (“Cytotoxicity / effect” for short) (Caco-2 cells) is reported as “none of these compounds affected Caco-2 cell viability; also recorded: no cytotoxic effects” and the IC50 (α-glucosidase; [6]) is reported as 13.8 ± 2.7 µM. For the same compound, the EC50 [3] was 13 ± 0.2 µM.
Work on `Cc1cccc2c1nc(-c1ccc(Cl)c([N+](=O)[O-])c1)n2Cc1ccc(Cl)c([N+](=O)[O-])c1` [C00039] yielded an IC50 (α-glucosidase; read-out: α-Glucosidase IC50, mean ± SD, three independent assays) of 7.1 ± 2.1 µM.
For `Cc1cccc2c1nc(-c1cc(O)c(O)c(O)c1)n2Cc1cc(O)c(O)c(O)c1` [8s, 5-(4-Methyl-1-(3,4,5-trihydroxybenzyl)-1H-benzo[d]imidazol-2-yl)benzene-1,2,3-triol], the EC50 [2] was 7.4 ± 0.2 µM, the “Cytotoxicity / effect” value (Caco-2 cells) was “none of these compounds affected Caco-2 cell viability; also recorded: no cytotoxic effects” and the inhibition at 50 µM (α-glucosidase; [7]) was 97.5%. The IC50 (α-glucosidase; [6]) was 0.39 ± 0.04 µM and the EC50 [3] was 4.6 ± 0.2 µM.
In the case of `O=[N+]([O-])c1ccc2c(c1)nc(-c1cc(Br)ccc1O)n2Cc1cc(Br)ccc1O` [III], the hPreP agonism (hPreP) is given as “potent hPreP agonist”.
For `O=[N+]([O-])c1cc(Cn2c(-c3ccc(Cl)c([N+](=O)[O-])c3)nc3cc(Cl)ccc32)ccc1Cl` [C00033], the inhibition at 50 µM [1] was 15.8 ± 0.5% and the inhibition at 50 µM (α-glucosidase; [7]) was 17.3 ± 0.4%.
For `Cc1c(C)c2c(c(C)c1O)CCC(C)(C(=O)O)O2` (stereo not drawn) [Trolox, reference compound], the EC50 [2] was 25.3 ± 0.9 µM and the EC50 [3] was 24.4 ± 0.2 µM.
`COc1ccccc1Cn1c(-c2ccccc2OC)nc2c(C)cccc21` [C00034] showed an inhibition at 50 µM [1] of 3.2 ± 2.3% and an inhibition at 50 µM (α-glucosidase; [7]) of 35.3 ± 6.8%.
`O=[N+]([O-])c1cc(Cn2c(-c3ccc(Cl)c([N+](=O)[O-])c3)nc3ccccc32)ccc1Cl` [C00031] showed an inhibition at 50 µM [1] of 10.2 ± 6.41% and an inhibition at 50 µM (α-glucosidase; [7]) of 9.2 ± 1.6%.
For `Cc1cccc2c1nc(-c1ccc(Cl)c([N+](=O)[O-])c1)n2Cc1ccc(Cl)c([N+](=O)[O-])c1` [8k, 1-(4-Chloro-3-nitrobenzyl)-2-(4-chloro-3-nitrophenyl)-4-methyl-1H-benzo[d]imidazole], the “DPPH EC50” value [2] was “no detectable antioxidant activity”, the “Cytotoxicity / effect” value (Caco-2 cells) was “none of these compounds affected Caco-2 cell viability; also recorded: no cytotoxic effects” and the IC50 (α-glucosidase) was 7.1 µM. For the same compound, the inhibition at 50 µM (α-glucosidase; pH 6.8, read-out: α-Glucosidase % inib. at 50 μM) was 71.2% and the “ABTS EC50” value [3] was “no detectable antioxidant activity”.
With `Cc1cccc2c1nc(-c1cc(O)c(O)c(O)c1)n2Cc1cc(O)c(O)c(O)c1` [C00038] the “α-Glucosidase % inib. at 50 μM” value (α-glucosidase; [5]) was 97.5 ± 0.5%.
In the case of `Cc1cccc2c1nc(-c1cc(O)ccc1O)n2Cc1cc(O)ccc1O` [C00037], the inhibition at 50 µM [1] is reported as 1.3 ± 0.3% and the inhibition at 50 µM (α-glucosidase; [7]) is reported as 94.2 ± 2.8%.
Compound `Cc1cccc2c1nc(-c1cc(O)c(O)c(O)c1)n2Cc1cc(O)c(O)c(O)c1` [C00041] has an IC50 (α-glucosidase; [6]) of 0.39 ± 0.04 µM.
For `c1ccc(Cn2c(-c3ccccc3)nc3ccccc32)cc1` [I], the Antibacterial activity (V. cholerae) is listed as “particularly active”, the Antibacterial activity (B. cereus) is listed as “particularly active” and the Antibacterial activity (S. dysenteriae) is listed as “particularly active”.
In the case of `Cc1cccc2c1nc(-c1ccc(Br)c(Br)c1)n2Cc1ccc(Br)c(Br)c1` [C00036], the inhibition at 50 µM [1] is reported as 35.7 ± 3% and the inhibition at 50 µM (α-glucosidase; [7]) is reported as 38.2 ± 7.4%.
For `Oc1ccc(Br)cc1Cn1c(-c2cc(Br)ccc2O)nc2ccccc21` [II], the Antibacterial activity (V. cholerae) is given as “particularly active”, the Antibacterial activity (B. cereus) is given as “particularly active” and the Antibacterial activity (S. dysenteriae) is given as “particularly active”.
`Cc1cccc2c1nc(-c1ccc(O)c([N+](=O)[O-])c1)n2Cc1ccc(O)c([N+](=O)[O-])c1` [C00035] gave an inhibition at 50 µM [1] of 4.3 ± 2.1% and an inhibition at 50 µM (α-glucosidase; [7]) of 3.7 ± 1.4%.
For `O=[N+]([O-])c1cc(Cn2c(-c3ccc(Cl)c([N+](=O)[O-])c3)nc3ccccc32)ccc1Cl` [3k, 1-(4-Chloro-3-nitrobenzyl)-2-(4-chloro-3-nitrophenyl)-1H-benzo[d]imidazole], the “Effect on IDE activity” value [4] is given as “actively stimulate IDE activity” and the “Effect on IDE activity” value ([4]; listed as IV) is given as “improves the activity of insulin-degrading enzyme (IDE)”.
